Experimental data reported in patent publication US8946201B2, “Methods for inhibiting TGF-β” (Saint Louis University, priority 2007, dated 2015).

Tests used:
[1] = system: Smad2 phosphorylation stimulated by TGF-β1; experiment: TGF-β1-stimulated Smad2 phosphorylation, Western blot, NRK cells; format: cell-based, rat; conditions: 25 μg/ml, 37° C. 1 hr, then 50 pM TGF-β1 0.5 hr
Description: Cells were treated with increasing concentrations of cholesterol, as indicated (A, B, C), 50 μg protein/ml LDL (D), 5 μg protein/ml VLDL (D) or 50 μg/ml cholesterol (E) at 37° C. for 1 hr and then further incubated with 50 pM TGF-β1 for 30 min. Phosphorylated Smad2 (P-Smad2) and total Smad2 in the cell lysates were analyzed by 7.5% SDS-PAGE and followed by immunoblot analysis using anti-P-Smad2 and anti-Smad2 antibodies. A representative of a total of 3 analyses is shown (top). The quantitative analysis of the immunoblots is shown (bottom). […] Smad2 nuclear translocation was analyzed by indirect immunofluorescent staining using P-Smad2 antibody and rhodamine-labeled 2nd antibody (E). Rhodamine fluorescence represents P-Smad2 staining (a,b,c) whereas the nuclei were stained by DAPI staining (d,e,f).
(§1) Cells grown to near confluence on 12-well cluster dishes were treated with cholesterol or LDL in serum-free DMEM (vol.=0.5 ml/well) at 37° C. for 1 hr. […] Treated cells were lysed and cell lysates were analyzed by 7.5% SDS-PAGE and Western blot analysis using anti-Smad2, anti-P-Smad2, anti-caveolin-1, anti-TβR-I (alk5) or anti-TβR-II antibodies as described previously (30). […]
It has been reported that TGF-β responsiveness is determined by TGF-β partitioning between lipid raft/caveolae-mediated and clathrin-mediated endocytosis. […]

TβR-II = experiment: TGF-β1-induced degradation of TβR-II, Western blot; format: cell-based
Description: (E) Cells were treated with several concentrations of cholesterol (a,b) or LDL (c,d) as indicated in the presence and absence of 1% β-CD at 37° C. for 1 hr and further incubated with 50 pM TGF-β for 1 hr. The cell lysates were then subjected to 7.5% SDS-PAGE and Western blot analysis using antibodies to TβR-II and α-actin (a,c). The relative intensities of TβR-II and α-actin on the blot were quantified by densitometry (b,d). The ratio of the relative intensities of TβR-II and α-actin in cells treated without TGF-β1 was taken as the 100% level of TβR-II.
(F, G) Cells were treated with or without 1 μM lovastatin/fluvastatin or nystatin (25 μg/ml)/cholesterol (50 μg/ml) at 37° C. for 16 hr or 1 hr, respectively. The treated cells were directly analyzed by sucrose density gradient ultracentrifugation analysis (F) or further incubated with 50 pM TGF-β at 37° C. for several time periods as indicated (G). Western blot analysis of the sucrose density gradient fractions (F) and of TGF-β1-treated cell lysates (G) was performed using antibody to TβR-II. The relative levels of TβR-II and α-actin were quantified by densitometry. Fractions ⅘ and 7 represent lipid raft/caveolae and non-lipid raft fractions, respectively. […] The quantitative data from three independent analyses is shown (G, bottom). […]
as §1
Lipid raft/caveolae-mediated endocytosis of receptor-bound TGF-β results in rapid degradation of TGF-β1 and suppression of TGF-β responsiveness. […] To test this, we analyzed the lipid raft/caveolae and non-lipid raft localization of TβR-I and TβR-II in the plasma membrane of cells treated with or without cholesterol (50 μg/ml) using sucrose density gradient ultracentrifugation analysis. […]

In the case of `CC(C)CCC[C@@H](C)[C@H]1CC[C@H]2[C@@H]3CC=C4C[C@@H](O)CC[C@]4(C)[C@H]3CC[C@]12C` [cholesterol], the “suppression of Smad2 phosphorylation stimulated by TGF-β1” value [1] was 40%, the “TβR-II degradation, treatment alone” value (TβR-II; cholesterol 10 μg/ml or LDL 15 μg protein/ml, without TGF-β1) was “did not induce” and the “enhancement of TGF-β1-induced degradation of TβR-II” value (TβR-II; cholesterol 10 μg/ml, LDL 15 μg protein/ml, 1 hr, then 50 pM TGF-β 1 hr) was 70%.
